Source: US20240368096A1 (Enanta Pharmaceuticals, Inc., priority 2022, published 2024)

System: HBV
Assay: HBV infection in HepG2-NTCP cells (HBeAg AlphaLISA in supernatants)
Format: cell-based
Details: Hepatitis B virus, 192 h; HBV infection of HepG2-NTCP cells; HBeAg in supernatants at day 8 post infection; read-out: Cellular EC50
Outline: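 HepG2-NTCP A3 cells were pre-incubated 2 h with 3-fold serially diluted compounds, then infected with HBV at 2000 GE/cell with 4% PEG (0.5% DMSO final). After washing on day 1, cells stayed in 2.5% DMSO medium; supernatant HBeAg measured by AlphaLISA on day 8, EC50 versus DMSO controls.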

SMILES | EC50 [nM]
CC(C)CC1CN(C2CCCC2)c2cc(Cl)c(-c3cccc(C(=O)O)c3)cc2S(=O)(=O)N1C (centres unmarked) [Example 326, 3-(7-chloro-5-cyclopentyl-3-isobutyl-2-methyl-1,1-dioxido-2,3,4,5-tetrahydrobenzo[f][1,2,5]thiadiazepin-8-yl)benzoic acid] | 100 to 1000
CN1[C@H](C2CCCCC2)CN(c2ccccc2)c2cc(OCc3cccc(OC(F)(F)F)c3)c(-c3cc(F)c(C(=O)O)s3)cc2S1(=O)=O [Example 511] | 100 to 1000
CN1[C@H](C2CCC2)CN(c2ccccc2)c2cc(Cl)c(-c3ccc(Cl)c(C(=O)O)c3)cc2S1(=O)=O [Example 81] | < 100
CN1[C@H](C2CC2)CN(c2ccccc2)c2cc(Cl)c(-c3ccc(Cl)c(C(=O)O)c3)cc2S1(=O)=O [Example 65] | < 100
CCC[C@@H]1CN(c2ccccc2)c2cc(Cl)c(-c3ccc(F)c(C(=O)O)c3)cc2S(=O)(=O)N1C [Example 47] | 100 to 1000
CN1[C@H](C2CCCCC2)CN(c2ccccc2)c2cc(OC3CCCC3)c(-c3ccc(F)c(C(=O)O)c3)cc2S1(=O)=O [Example 373] | < 100
CCCC[C@@H]1CN(c2ccccc2)c2cc(-n3nnnc3C)c(-c3ccc(F)c(C(=O)O)c3)cc2S(=O)(=O)N1C [Example 525] | > 1000
CC(C)C[C@@H]1CN(c2ccccc2)c2cc(OCc3ccccn3)c(-c3ccc(F)c(C(=O)O)c3)cc2S(=O)(=O)N1C [Example 459] | < 100
CN1[C@H](C2CCCCC2)CN(c2ccccc2)c2cc(Cl)c(-c3ccc4oncc4c3)cc2S1(=O)=O [Example 202] | 100 to 1000
CC(C)C[C@@H]1CN(c2ccccc2)c2cc(Cl)c(-c3cccc(CCC(=O)O)c3)cc2S(=O)(=O)N1C [Example 172] | > 1000
CN1[C@H](C2CCCCC2)CN(c2ccccc2)c2cc(C#CC(C)(C)O)c(-c3ccc(F)c(C(=O)O)c3)cc2S1(=O)=O [Example 603] | 100 to 1000
CC(C)C[C@@H]1CN(c2ccccc2)c2cc(OCCN(C)C)c(-c3ccc(F)c(C(=O)O)c3)cc2S(=O)(=O)N1C [Example 451] | > 1000
CCCCC[C@H](C)Oc1cc2c(cc1-c1cc(F)c(C(=O)O)s1)S(=O)(=O)N(C)[C@H](C1CCCCC1)CN2c1ccccc1 [Example 490] | < 100
CCCC[C@H]1CN(c2ccccc2)c2cc(N(C)C)c(-c3cccc(C(=O)O)c3)cc2S(=O)(=O)N1C [Example 542] | > 1000
CN1[C@H](C2CCCCC2)CN(c2cccc(OCC(F)(F)F)c2)c2cc(Cl)c(-c3ccc(F)c(C(=O)O)c3)cc2S1(=O)=O [Example 313] | < 100
CC(C)C[C@@H]1CN(c2ccccc2)c2cc(Cl)c(-c3cccc(S(N)(=O)=O)c3)cc2S(=O)(=O)N1C [Example 168] | > 1000
CN1[C@H](C2CCCCC2)CN(c2ccccc2)c2cc(OC3CC4(CCC4)C3)c(-c3ccc(F)c(C(=O)O)c3)cc2S1(=O)=O [Example 377] | < 100
CC(C)OC(=O)Nc1cc(-c2cc3c(cc2Cl)N(c2ccccc2)C[C@@H](C2CCCCC2)N(C)S3(=O)=O)sc1C(=O)O [Example 248] | < 100
COc1cc(F)cc(Oc2cc3c(cc2-c2ccc(F)c(C(=O)O)c2)S(=O)(=O)N(C)[C@H](C2CCCCC2)CN3c2ccccc2)c1 [Example 409] | < 100
CCO[C@H](C)[C@@H]1CN(c2ccccc2)c2cc(Cl)c(-c3ccc(F)c(C(=O)O)c3)cc2S(=O)(=O)N1C [Example 92] | 100 to 1000
CC(C)C[C@@H]1CN([C@H]2CCOC2)c2cc(Oc3ccccc3F)c(-c3ccc(F)c(C(=O)O)c3)cc2S(=O)(=O)N1C [Example 474] | 100 to 1000
CN1[C@H](C2CCCCC2)CN(c2cncc(F)c2)c2cc(Cl)c(-c3ccc(F)c(C(=O)O)c3)cc2S1(=O)=O [Example 280, (R)-5-(7-chloro-3-cyclohexyl-5-(5-fluoropyridin-3-yl)-2-methyl-1,1-dioxido-2,3,4,5-tetrahydrobenzo[f][1,2,5]thiadiazepin-8-yl)-2-fluorobenzoic acid] | 100 to 1000
CN1[C@H](CN=[N+]=[N-])CN(c2ccccc2)c2cc(Cl)c(-c3ccc(F)c(C(=O)O)c3)cc2S1(=O)=O [Example 99, (S)-5-(3-(azidomethyl)-7-chloro-2-methyl-1,1-dioxido-5-phenyl-2,3,4,5-tetrahydrobenzo[f][1,2,5]thiadiazepin-8-yl)-2-fluorobenzoic acid] | > 1000
CC(C)C[C@@H]1CN(c2ccccc2)c2cc(OCc3cocn3)c(-c3ccc(F)c(C(=O)O)c3)cc2S(=O)(=O)N1C [Example 462] | < 100
CN1C(c2cnn(C)c2)CN(c2ccccc2)c2cc(Cl)c(-c3ccc(F)c(C(=O)O)c3)cc2S1(=O)=O (centres unmarked) [Example 79] | 100 to 1000
CN1[C@H](C2CCCCC2)CN(c2ccccc2)c2cc(N3CCCCC3)c(-c3ccc(Cl)c(C(=O)O)c3)cc2S1(=O)=O [Example 558, (R)-2-chloro-5-(3-cyclohexyl-2-methyl-1,1-dioxido-5-phenyl-7-(piperidin-1-yl)-2,3,4,5-tetrahydrobenzo[f][1,2,5]thiadiazepin-8-yl)benzoic acid] | < 100
CN1[C@H](C2CCCCC2)CNc2cc(-c3cccnc3)c(-c3ccc(F)c(C(=O)O)c3)cc2S1(=O)=O [Example 572] | 100 to 1000

SMILES | EC50 [nM]
CCCCC[C@@H](C)Oc1cc2c(cc1-c1cc(F)c(C(=O)O)s1)S(=O)(=O)N(C)[C@H](C1CCCCC1)CN2c1ccccc1 [Example 491] | 100 to 1000
CC(C)CC1CN(c2ccccc2)c2cc(N3CCCCC3)c(-c3cccc(C(=O)O)c3)cc2S(=O)(=O)N1C (centres unmarked) [Example 545] | < 100
CCCCC1CN(c2ccccc2)c2cc(Cl)c(-c3ccc(F)c(C(=O)O)c3)cc2S(=O)(=O)N1C (centres unmarked) [Example 71] | 100 to 1000
COC(C)(C)C#Cc1cc2c(cc1-c1ccc(F)c(C(=O)O)c1)S(=O)(=O)N(C)[C@H](C1CCCCC1)CN2c1ccccc1 [Example 604] | < 100
CN1[C@H](C2CCCCC2)CN(c2ccccc2)c2cc(Cl)c(-c3cccc(C(=O)O)c3O)cc2S1(=O)=O [Example 148] | 100 to 1000
CN1[C@H](C2CCCCC2)CN(c2ccccc2)c2cc(Cl)c(-c3ccc(Cl)c(S(N)(=O)=O)c3)cc2S1(=O)=O [Example 200] | 100 to 1000
CC(C)C[C@@H]1CN(c2ccccc2)c2cc(Cl)c(-c3ccc(Cl)c(C(N)=O)c3)cc2S(=O)(=O)N1C [Example 166] | > 1000
COCCOc1cc2c(cc1-c1cc(NC(=O)OC(C)(C)C)c(C(=O)O)s1)S(=O)(=O)N(C)[C@H](C1CCCCC1)CN2c1ccccc1 [Example 515, (R)-3-((tert-butoxycarbonyl)amino)-5-(3-cyclohexyl-7-(2-methoxyethoxy)-2-methyl-1,1-dioxido-5-phenyl-2,3,4,5-tetrahydrobenzo[f][1,2,5]thiadiazepin-8-yl)thiophene-2-carboxylic acid] | < 100
COc1cc(-c2cc3c(cc2Cl)N(c2ccccc2)C[C@@H](C2CCCCC2)N(C)S3(=O)=O)cc(C(=O)O)c1N [Example 191] | < 100
CN1C[C@@H](C2CCCCC2)N(C)S(=O)(=O)c2cc(-c3ccc(F)c(C(=O)O)c3)c(Cl)cc21 [Example 582, (R)-5-(7-chloro-3-cyclohexyl-2,5-dimethyl-1,1-dioxido-2,3,4,5-tetrahydrobenzo[f][1,2,5]thiadiazepin-8-yl)-2-fluorobenzoic acid] | 100 to 1000
CC1CN(c2ccccc2)c2cc(F)c(-c3ccc(F)c(C(=O)O)c3)cc2S(=O)(=O)N1C (centres unmarked) [Example 1, 2-fluoro-5-(7-fluoro-2,3-dimethyl-1,1-dioxido-5-phenyl-2,3,4,5-tetrahydrobenzo[f][1,2,5]thiadiazepin-8-yl)benzoic acid] | > 1000
CN1[C@H](C2CCCCC2)CN(c2ccc(C(F)(F)F)cc2F)c2cc(Cl)c(-c3ccc(F)c(C(=O)O)c3)cc2S1(=O)=O [Example 302] | 100 to 1000
CCCC[C@@H]1CN(c2ccccc2)c2cc(Nc3ccccc3F)c(-c3ccc(F)c(C(=O)O)c3)cc2S(=O)(=O)N1C [Example 522] | < 100
CC(C)C[C@@H]1CN(c2ccccc2)c2cc(OCc3cccnc3)c(-c3ccc(F)c(C(=O)O)c3)cc2S(=O)(=O)N1C [Example 456] | 100 to 1000
CC(C)COC(=O)Nc1cc(-c2cc3c(cc2F)N(c2ccccc2)C[C@@H](C2CCCCC2)N(C)S3(=O)=O)sc1C(=O)O [Example 266] | < 100
CCCCCCCOc1cc2c(cc1-c1cc(F)c(C(=O)O)s1)S(=O)(=O)N(C)[C@H](C1CCCCC1)CN2c1ccccc1 [Example 485] | < 100
CCCC[C@H]1CN(c2ccccc2)c2cc(Nc3ccccc3F)c(-c3cccc(C(=O)O)c3)cc2S(=O)(=O)N1C [Example 539] | > 1000
CCCC[C@@H]1CN(c2ccccc2)c2cc(C)c(-c3ccc(Cl)c(C(=O)O)c3)cc2S(=O)(=O)N1C [Example 567] | 100 to 1000
COC1CCN(c2cc3c(cc2-c2ccc(Cl)c(C(=O)O)c2)S(=O)(=O)N(C)[C@H](C2CCCCC2)CN3c2ccccc2)CC1 [Example 559] | 100 to 1000
CN1[C@H](C2CCC2)CN(c2ccccc2)c2cc(Cl)c(-c3cc(F)c(C(=O)O)s3)cc2S1(=O)=O [Example 121] | < 100
CN1[C@H](C2CCCCC2)CN(c2ccccc2)c2cc(OC3CCC(C)(C)CC3)c(-c3ccc(F)c(C(=O)O)c3)cc2S1(=O)=O [Example 386] | 100 to 1000
CN1[C@H](C2CCCCC2)CN(c2ccccc2)c2cc(O[C@H]3C[C@@H](F)C3)c(-c3ccc(F)c(C(=O)O)c3)cc2S1(=O)=O [Example 380] | < 100
CN1[C@H](CN2CCCC2=O)CN(c2ccccc2)c2cc(Cl)c(-c3ccc(F)c(C(=O)O)c3)cc2S1(=O)=O [Example 115] | > 1000
CN1[C@H](C2CCCCC2)CN(c2ccccc2)c2cc(OCc3ccco3)c(-c3ccc(F)c(C(=O)O)c3)cc2S1(=O)=O [Example 334] | < 100
CN1[C@H](C2CCCCC2)CN(c2ccccc2)c2cc(F)c(-c3ccc(N)c(C(=O)O)c3)cc2S1(=O)=O [Example 158] | 100 to 1000
CC(C)CC1CN(c2ccccc2)c2cc(C#N)c(-c3cccc(C(=O)O)c3)cc2S(=O)(=O)N1C (centres unmarked) [Example 14] | 100 to 1000
